Laboratory results: patent US8846694B2, “Pyrrolidone derivatives for use as MetAP-2 inhibitors” (Merck Patent GmbH, priority 2008, dated 2014)
Counter-ions that a name gives are not always drawn.

Target: MetAP-2 (Homo sapiens, UniProt P50579)
Experiment: MetAP-2 activity measurement (coupled enzymatic reactions, substrate Met-Arg-Ser, photometric at 450 nm)
Assay type: biochemical
Settings: read-out: IC50 enzyme (Inhibition of MetAP-2)
Procedure, shortened: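 Human MetAP-2 cleaves Met-Arg-Ser; the freed methionine is oxidized by L-amino acid oxidase, and the resulting H2O2 drives peroxidase oxidation of dianisidine, read continuously at 450 nm. Activity is taken as the slope in the visually linear region.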

Sequence of MetAP-2 (P50579 whole entry, species assumed): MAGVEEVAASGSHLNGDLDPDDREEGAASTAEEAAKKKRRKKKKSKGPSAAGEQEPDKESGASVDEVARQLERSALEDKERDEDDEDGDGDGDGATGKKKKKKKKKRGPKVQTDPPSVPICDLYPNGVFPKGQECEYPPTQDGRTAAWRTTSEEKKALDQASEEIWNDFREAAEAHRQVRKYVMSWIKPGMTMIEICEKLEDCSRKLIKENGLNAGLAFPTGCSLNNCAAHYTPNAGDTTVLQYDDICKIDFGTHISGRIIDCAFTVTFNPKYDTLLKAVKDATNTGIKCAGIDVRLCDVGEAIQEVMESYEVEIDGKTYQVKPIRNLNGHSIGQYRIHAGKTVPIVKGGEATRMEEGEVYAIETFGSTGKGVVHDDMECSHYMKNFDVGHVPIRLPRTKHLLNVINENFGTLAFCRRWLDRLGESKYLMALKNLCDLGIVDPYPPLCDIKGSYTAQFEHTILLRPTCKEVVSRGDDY

Row | SMILES | IC50
1 | Oc1ccc2cccc(NC[C@H]3CCCN3c3ncnc4[nH]cnc34)c2c1 [A131, 8-{[(R)-1-(9H-Purin-6-yl)pyrrolidin-2-ylmethyl]-amino}naphthalen-2-ol] | > 10 µM
2 | O=S(=O)(O)c1ccc2cccc(NC[C@H]3CCCN3c3ncnc4[nH]cnc34)c2c1 [A132, 8-{[(R)-1-(9H-Purin-6-yl)pyrrolidin-2-yimethyl]-amino}naphthalene-2-sulfonic acid] | > 10 µM
3 | O=C1OCCC1CCn1cnc2c(N3CCC[C@@H]3COc3cccc4ccc(O)cc34)ncnc21 (stereo partly drawn) [A134, 3-(2-{6-[(R)-2-(7-Hydroxynaphthalen-1-yl-oxymethyl)pyrrolidin-1-yl]purin-9-yl}ethyl)-dihydrofuran-2-one] | 1 to 10 µM
4 | NC(=O)CCn1cnc2c(N3CCC[C@@H]3COc3cccc4ccc(O)cc34)ncnc21 [A135, 3-{6-[(R)-2-(7-Hydroxynaphthalen-1-yl-oxymethyl)pyrrolidin-1-yl]purin-9-yl}-propionamide] | > 10 µM
5 | CCOC(=O)CCCCn1cnc2c(N3CCC[C@@H]3COc3cccc4ccc(O)cc34)ncnc21 [A136, Ethyl 5-{6-[(R)-2-(7-hydroxynaphthalen-1-yl-oxymethyl)pyrrolidin-1-yl]purin-9-yl}pentanoate] | > 10 µM
6 | CN1CCN(c2ccc3cccc(OC[C@H]4CCCN4c4ncnc5[nH]cnc45)c3c2)CC1 [A145, 6-{(R)-2-[7-(4-Methylpiperazin-1-yl)naphthalen-1-yloxymethyl]pyrrolidin-1-yl}-9H-purine] | 1 to 10 µM
7 | Oc1ccc(OC[C@H]2CCCN2c2ncnc3[nH]c(F)nc23)c2ccccc12 [A147, 4-[(R)-1-(8-Fluoro-9H-purin-6-yl)pyrrolidin-2-yl-methoxy]naphthalen-1-ol] | 1 to 10 µM
8 | O=C(NCCN1CCOCC1)c1cc(OC[C@H]2CCCN2c2ncnc3[nH]cnc23)c2ccccc2n1 [A149, N-(2-Morpholin-4-ylethyl)-4-[(R)-1-(9H-purin-6-yl)pyrrolidin-2-ylmethoxy]quinoline-2-carboxamide] | > 10 µM
9 | COc1ccc(CCOc2cc3c(OC[C@H]4CCCN4c4ncnc5[nH]cnc45)ccc(CCc4ccc(OC)cc4)c3cc2C(=O)N(C)C)cc1 [A152, N,N-Dimethyl-3-[2-(4-methoxyphenyl)ethoxy]-8-[2-(4-methoxyphenyl)ethyl]-5-[(R)-1-(9H-purin-6-yl)pyrrolidin-2-ylmethoxy]naphthalene-2-carboxamide] | > 10 µM
10 | CCNC(=O)Nc1ccc2cccc(OC[C@H]3CCCN3c3ncnc4[nH]cnc34)c2c1 [A154, 1-Ethyl-3-{8-[(R)-1-(9H-purin-6-yi)pyrrolidin-2-yl-methoxy]naphthalen-2-yl}urea] | 1 to 10 µM
11 | CCNC(=O)N1CCN(c2ccc3cccc(OC[C@H]4CCCN4c4ncnc5[nH]cnc45)c3c2)CC1 [A155, N-Ethyl-4-{8-[(R)-1-(9H-purin-6-yl)pyrrolidin-2-yl-methoxy]naphthalen-2-yl}piperazine-1-carboxamide] | 1 to 10 µM
12 | O=C(NCc1ccco1)N1CCN(c2ccc3cccc(OC[C@H]4CCCN4c4ncnc5[nH]cnc45)c3c2)CC1 [A156, N-(Furan-2-ylmethyl)-4-{8-[(R)-1-(9H-purin-6-yl)-pyrrolidin-2-ylmethoxy]naphthalen-2-yl}-piperazine-1-carboxamide] | 1 to 10 µM
13 | CCOC(=O)CNC(=O)N1CCN(c2ccc3cccc(OC[C@H]4CCCN4c4ncnc5[nH]cnc45)c3c2)CC1 [A157, Ethyl [(4-{8-[(R)-1-(9H-purin-6-yl)pyrrolidin-2-yl-methoxy]naphthalen-2-yl}piperazine-1-carbonyl)amino]acetate] | 1 to 10 µM
14 | O=C(O)CNC(=O)N1CCN(c2ccc3cccc(OC[C@H]4CCCN4c4ncnc5[nH]cnc45)c3c2)CC1 [A158, [(4-{8-[(R)-1-(9H-Purin-6-yl)pyrrolidin-2-yl-methoxy]naphthalen-2-yl}piperazine-1-carbonyl)amino]acetic acid] | > 10 µM
15 | O=C(NCc1ccco1)Nc1ccc2cccc(OC[C@H]3CCCN3c3ncnc4[nH]cnc34)c2c1 [A159, 1-Furan-2-ylmethyl-3-{8-[(R)-1-(9H-purin-6-yl)-pyrrolidin-2-ylmethoxy]naphthalen-2-yl}urea] | 1 to 10 µM
16 | COC(=O)CC[C@H](NC(=O)OCc1ccccc1)C(=O)Nc1ccc2cccc(OC[C@H]3CCCN3c3ncnc4[nH]cnc34)c2c1 [A160, Methyl (S)-4-benzyloxycarbonylamino-4-{8-[(R)-1-(9H-purin-6-yl)pyrrolidin-2-ylmethoxy]-naphthalen-2-ylcarbamoyl}butyrate] | > 10 µM
17 | CC(C)(C)OC(=O)N[C@@H](CCC(N)=O)C(=O)Nc1ccc2cccc(OC[C@H]3CCCN3c3ncnc4[nH]cnc34)c2c1 [A161, tert-Butyl ((S)-3-carbamoyl-1-{8-[(R)-1-(9H-purin-6-yl)pyrrolidin-2-ylmethoxy]naphthalen-2-ylcarbamoyl}propyl)carbamate] | 1 to 10 µM
18 | CC(C)(C)OC(=O)N[C@H](CC(N)=O)C(=O)Nc1ccc2cccc(OC[C@H]3CCCN3c3ncnc4[nH]cnc34)c2c1 [A162, tert-Butyl ((R)-2-carbamoyl-1-{8-[(R)-1-(9H-purin-6-yl)pyrrolidin-2-ylmethoxy]naphthalen-2-ylcarbamoyl}ethyl)carbamate] | 1 to 10 µM
19 | CC(C)(C)OC(=O)N[C@@H](Cc1c[nH]cn1)C(=O)Nc1ccc2cccc(OC[C@H]3CCCN3c3ncnc4[nH]cnc34)c2c1 [A163, tert-Butyl ((S)-2-(1H-imidazol-4-yl)-1-{8-[(R)-1-(9H-purin-6-yl)pyrrolidin-2-ylmethoxy]-naphthalen-2-ylcarbamoyl}ethyl)carbamate] | 1 to 10 µM
20 | N[C@@H](Cc1c[nH]cn1)C(=O)Nc1ccc2cccc(OC[C@H]3CCCN3c3ncnc4[nH]cnc34)c2c1 [A164, (S)-2-Amino-3-(1H-imidazol-4-yl)-N-{8-[(R)-1-(9H-purin-6-yl)pyrrolidin-2-ylmethoxy]-naphthalen-2-yl}propionamide * HCl] | 1 to 10 µM
21 | NC(=O)CC[C@H](N)C(=O)Nc1ccc2cccc(OC[C@H]3CCCN3c3ncnc4[nH]cnc34)c2c1 [A165, N-(1-({8-[(R)-1-(9H-Purin-6-yl)pyrrolidin-2-yl-methoxy]naphthalen-2-yl})-(S)-2-aminopentan-5-amide * HCl] | 1 to 10 µM

Further lines, results first:

Row | IC50 | SMILES
22 | 0.01 to 1 µM | O=C1c2cccc(OC[C@H]3CCCN3c3ncnc4[nH]cnc34)c2CC[C@H]1Cc1cc[nH]n1 [A130, (S)-5-[(R)-1-(9H-Purin-6-yl)pyrrolidin-2-yl-methoxy]-2-(1H-pyrazol-3-ylmethyl)-3,4-dihydro-2H-naphthalen-1-one]
23 | 1 to 10 µM | CC(C)(C)OC(=O)NCCCCCC(=O)N1CCc2cccc(OC[C@H]3CCCN3c3ncnc4[nH]cnc34)c2C1 [A133, tert-Butyl (6-oxo-6-{8-[(R)-1-(9H-purin-6-yl)-pyrrolidin-2-ylmethoxy]-3,4-dihydro-1H-isoquinolin-2-yl}hexyl)carbamate]
24 | 0.01 to 1 µM | FC(F)(F)Oc1ccc2nccc(OC[C@H]3CCCN3c3ncnc4[nH]cnc34)c2c1 [A137, 4-[(R)-1-(9H-Purin-6-yl)pyrrolidin-2-ylmethoxy]-6-trifluoromethoxyquinoline]
25 | 0.01 to 1 µM | NCCCCCC(=O)N1CCc2cccc(OC[C@H]3CCCN3c3ncnc4[nH]cnc34)c2C1 [A138, 6-Amino-1-{8-[(R)-1-(9H-purin-6-yl)pyrrolidin-2-ylmethoxy]-3,4-dihydro-1H-isoquinolin-2-yl}-hexan-1-one]
26 | 0.01 to 1 µM | CCCCOC(=O)c1cc(OC[C@H]2CCCN2c2ncnc3[nH]cnc23)c2cc(F)ccc2n1 [A139, Butyl 6-fluoro-4-[(R)-1-(9H-purin-6-yl)pyrrolidin-2-ylmethoxy]quinoline-2-carboxylate]
27 | 0.01 to 1 µM | [O-][n+]1c(C(F)(F)F)cc(OC[C@H]2CCCN2c2ncnc3[nH]cnc23)c2cc(F)ccc21 [A140, 6-Fluoro-4-[(R)-1-(9H-purin-6-yl)pyrrolidin-2-yl-methoxy]-2-trifluoromethylquinoline 1-oxide]
28 | 0.01 to 1 µM | O=C(O)c1cc(OC[C@H]2CCCN2c2ncnc3[nH]cnc23)c2cc(F)ccc2n1 [A141, 6-Fluoro-4-[(R)-1-(9H-purin-6-yl)pyrrolidin-2-yl-methoxy]quinoline-2-carboxylic acid]
29 | 0.01 to 1 µM | O=[N+]([O-])c1ccc2cccc(OC[C@H]3CCCN3c3ncnc4[nH]cnc34)c2c1 [A142, 6-[(R)-2-(7-Nitronaphthalen-1-yloxymethyl)-pyrrolidin-1-yl]-9H-purine]
30 | 0.01 to 1 µM | CNc1ccccc1C(=O)OC[C@H]1CCCN1c1ncnc2[nH]cnc12 [A143, (R)-1-(9H-purin-6-yl)pyrrolidin-2-ylmethyl 2-methylaminobenzoate]
31 | 0.01 to 1 µM | Nc1ccc2cccc(OC[C@H]3CCCN3c3ncnc4[nH]cnc34)c2c1 [A144, 8-[(R)-1-(9H-Purin-6-yl)pyrrolidin-2-yl-methoxy]naphthalen-2-ylamine]
32 | 0.01 to 1 µM | c1cc(OC[C@H]2CCCN2c2ncnc3[nH]cnc23)c2cc(N3CCOCC3)ccc2c1 [A146, 6-[(R)-2-(7-Morpholin-4-ylnaphthalen-1-yl-oxymethyl)pyrrolidin-1-yl]-9H-purine]
33 | 0.01 to 1 µM | c1ccc2c(OC[C@H]3CCCN3c3ncnc4[nH]cnc34)cncc2c1 [A148, 4-[(R)-1-(9H-Purin-6-yl)pyrrolidin-2-yl-methoxy]isoquinoline]
34 | 0.01 to 1 µM | O=C(NCCCN1CCOCC1)c1cc(OC[C@H]2CCCN2c2ncnc3[nH]cnc23)c2ccccc2n1 [A150, N-(3-Morpholin-4-ylpropyl)-4-[(R)-1-(9H-purin-6-yl)pyrrolidin-2-ylmethoxy]quinoline-2-carboxamide]
35 | 0.01 to 1 µM | COC(=O)c1c(OC[C@H]2CCCN2c2ncnc3[nH]cnc23)c2cc(F)ccc2n1C [A151, Methyl 5-fluoro-1-methyl-3-[(R)-1-(9H-purin-6-yl)pyrrolidin-2-ylmethoxy]-1H-indole-2-carboxylate]
36 | 0.01 to 1 µM | Clc1ccc(-n2ccc(OC[C@H]3CCCN3c3ncnc4[nH]cnc34)n2)c(Cl)c1 [A153, 6-{(R)-2-[1-(2,4-Dichlorophenyl)-1H-pyrazol-3-yloxymethyl]pyrrolidin-1-yl}-9H-purine]
37 | 0.01 to 1 µM | O=CN1CCN(c2ccc3cccc(OC[C@H]4CCCN4c4ncnc5[nH]cnc45)c3c2)CC1 [A166, 4-{8-[(R)-1-(9H-Purin-6-yl)pyrrolidin-2-ylm-ethoxy]naphthalen-2-yl}piperazine-1-carbaldehyde]
